# Measured values published in ChEMBL document CHEMBL4622877, “Aspeterreurone A, a Cytotoxic Dihydrobenzofuran-Phenyl Acrylate Hybrid from the Deep-Sea-Derived Fungus Aspergillus terreus CC-S06-18” (J Nat Prod, 2020).
# Calls of active or inactive are those of the source. The rule behind the calls is not given here.
# Key:
# AGS = assay: Cytotoxicity against human AGS cells after 72 hrs by CCK8 assay; type: functional, cell-based
# BGC-823 = assay: Cytotoxicity against human BGC823 cells after 72 hrs by CCK8 assay; type: functional, cell-based; conditions: for IC50: BGC-823, 72 h
# MGC-803 [1] = assay: Cytotoxicity against human MGC803 cells after 72 hrs by CCK8 assay; type: functional, cell-based; conditions: for IC50: MGC-803, 72 h
# HGC-27 = assay: Cytotoxicity against human HGC27 cells after 72 hrs by CCK8 assay; type: functional, cell-based; conditions: for IC50: HGC-27, 72 h
# GES1 = assay: Cytotoxicity against human GES-1 cells after 72 hrs by CCK8 assay; type: cell-based; conditions: GES1, 72 h
# MGC-803 [2] = assay: Induction of cell cycle arrest in human MGC803 cells assessed as accumulation of cells at G1 phase at 20 uM incubated for 24 hrs propidium iodide-A staining-based flow cytometric analysis (reference value: 52%); type: functional
# MGC-803 [3] = assay: Induction of apoptosis in human MGC803 cells assessed as late apoptotic cells at 10 uM incubated for 48 hrs by Annexin V-FITC/propidium iodide staining-based flow cytometric analysis (reference value: 0.84%); type: functional
# MGC-803 [4] = assay: Induction of cell cycle arrest in human MGC803 cells assessed as accumulation of cells at S phase at 2 uM incubated for 24 hrs propidium iodide-A staining-based flow cytometric analysis (reference value: 17%); type: functional
# MGC-803 [5] = assay: Induction of apoptosis in human MGC803 cells assessed as PARP cleavage at 20 uM incubated for 24 hrs by Western blot analysis; type: functional, cell-based
# MGC-803 [6] = assay: Induction of cell cycle arrest in human MGC803 cells assessed as accumulation of cells at G1 phase at 5 uM incubated for 24 hrs propidium iodide-A staining-based flow cytometric analysis (reference value: 52%); type: functional
# MGC-803 [7] = assay: Effect on total STAT3 expression in human MGC803 cells at 20 uM incubated for 24 hrs by Western blot analysis; type: cell-based; conditions: mgc-803, 24 h
# MGC-803 [8] = assay: Induction of cell cycle arrest in human MGC803 cells assessed as accumulation of cells at G2/M phase at 5 uM incubated for 24 hrs propidium iodide-A staining-based flow cytometric analysis (reference value: 31%); type: functional
# MGC-803 [9] = assay: Induction of apoptosis in human MGC803 cells assessed as late apoptotic cells at 2 uM incubated for 48 hrs by Annexin V-FITC/propidium iodide staining-based flow cytometric analysis (reference value: 0.84%); type: functional
# MGC-803 [10] = assay: Induction of cell cycle arrest in human MGC803 cells assessed as accumulation of cells at S phase at 20 uM incubated for 24 hrs propidium iodide-A staining-based flow cytometric analysis (reference value: 17%); type: functional
# MGC-803 [11] = assay: Induction of cell cycle arrest in human MGC803 cells assessed as accumulation of cells at G2/M phase at 2 uM incubated for 24 hrs propidium iodide-A staining-based flow cytometric analysis (reference value: 31%); type: functional
# MGC-803 [12] = assay: Induction of apoptosis in human MGC803 cells assessed as necrotic cells at 5 uM incubated for 48 hrs by Annexin V-FITC/propidium iodide staining-based flow cytometric analysis (reference value: 0.18%); type: functional
# MGC-803 [13] = assay: Induction of apoptosis in human MGC803 cells assessed as viable cells at 10 uM incubated for 48 hrs by Annexin V-FITC/propidium iodide staining-based flow cytometric analysis (reference value: 97.15%); type: functional; conditions: MGC-803, 48 h, read-out: Activity
# MGC-803 [14] = assay: Induction of cell cycle arrest in human MGC803 cells assessed as accumulation of cells at G2/M phase at 10 uM incubated for 24 hrs propidium iodide-A staining-based flow cytometric analysis (reference value: 31%); type: functional
# MGC-803 [15] = assay: Induction of apoptosis in human MGC803 cells assessed as early apoptotic cells at 2 uM incubated for 48 hrs by Annexin V-FITC/propidium iodide staining-based flow cytometric analysis (reference value: 1.83%); type: functional
# MGC-803 [16] = assay: Induction of cell cycle arrest in human MGC803 cells assessed as accumulation of cells at S phase at 5 uM incubated for 24 hrs propidium iodide-A staining-based flow cytometric analysis (reference value: 17%); type: functional
# MGC-803 [17] = assay: Induction of apoptosis in human MGC803 cells assessed as necrotic cells at 2 uM incubated for 48 hrs by Annexin V-FITC/propidium iodide staining-based flow cytometric analysis (reference value: 0.18%); type: functional
# MGC-803 [18] = assay: Induction of apoptosis in human MGC803 cells assessed as viable cells at 20 uM incubated for 48 hrs by Annexin V-FITC/propidium iodide staining-based flow cytometric analysis (reference value: 97.15%); type: functional; conditions: MGC-803, 48 h, read-out: Activity
# MGC-803 [19] = assay: Induction of apoptosis in human MGC803 cells assessed as late apoptotic cells at 20 uM incubated for 48 hrs by Annexin V-FITC/propidium iodide staining-based flow cytometric analysis (reference value: 0.84%); type: functional
# MGC-803 [20] = assay: Induction of apoptosis in human MGC803 cells assessed as viable cells at 2 uM incubated for 48 hrs by Annexin V-FITC/propidium iodide staining-based flow cytometric analysis (reference value: 97.15%); type: functional; conditions: MGC-803, 48 h, read-out: Activity
# MGC-803 [21] = assay: Induction of apoptosis in human MGC803 cells assessed as necrotic cells at 20 uM incubated for 48 hrs by Annexin V-FITC/propidium iodide staining-based flow cytometric analysis (reference value: 0.18%); type: functional
# MGC-803 [22] = assay: Induction of apoptosis in human MGC803 cells assessed as viable cells at 5 uM incubated for 48 hrs by Annexin V-FITC/propidium iodide staining-based flow cytometric analysis (reference value: 97.15%); type: functional; conditions: MGC-803, 48 h, read-out: Activity
# [23] = target: Signal transducer and activator of transcription 3 (Homo sapiens) (UniProt P40763); assay: Inhibition of STAT3 phosphorylation in human MGC803 cells at 2 to 20 uM incubated for 24 hrs by Western blot analysis; type: cell-based; conditions: MGC-803
# Sequence of Signal transducer and activator of transcription 3 (Homo sapiens) (P40763 whole entry): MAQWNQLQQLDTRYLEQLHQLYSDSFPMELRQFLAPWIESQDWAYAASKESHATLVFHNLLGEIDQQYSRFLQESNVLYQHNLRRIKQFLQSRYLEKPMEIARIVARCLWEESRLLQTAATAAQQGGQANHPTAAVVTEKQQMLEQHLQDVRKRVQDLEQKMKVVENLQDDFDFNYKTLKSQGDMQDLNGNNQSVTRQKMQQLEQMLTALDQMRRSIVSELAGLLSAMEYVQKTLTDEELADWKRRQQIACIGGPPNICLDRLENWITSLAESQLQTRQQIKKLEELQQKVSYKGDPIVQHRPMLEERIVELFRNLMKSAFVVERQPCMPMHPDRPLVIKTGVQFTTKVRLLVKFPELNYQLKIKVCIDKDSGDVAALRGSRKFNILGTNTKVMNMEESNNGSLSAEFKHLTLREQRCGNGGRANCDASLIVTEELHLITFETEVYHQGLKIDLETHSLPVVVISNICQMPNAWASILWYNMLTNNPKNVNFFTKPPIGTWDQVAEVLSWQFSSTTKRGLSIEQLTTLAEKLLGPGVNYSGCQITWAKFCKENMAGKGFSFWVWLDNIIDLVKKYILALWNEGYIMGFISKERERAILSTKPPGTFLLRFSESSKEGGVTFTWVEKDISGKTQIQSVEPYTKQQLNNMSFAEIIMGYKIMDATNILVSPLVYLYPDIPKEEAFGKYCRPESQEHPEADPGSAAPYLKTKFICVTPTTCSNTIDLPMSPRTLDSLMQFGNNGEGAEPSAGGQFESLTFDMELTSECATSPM
# MGC-803 [24] = assay: Induction of apoptosis in human MGC803 cells assessed as late apoptotic cells at 5 uM incubated for 48 hrs by Annexin V-FITC/propidium iodide staining-based flow cytometric analysis (reference value: 0.84%); type: functional
# MGC-803 [25] = assay: Induction of apoptosis in human MGC803 cells assessed as early apoptotic cells at 10 uM incubated for 48 hrs by Annexin V-FITC/propidium iodide staining-based flow cytometric analysis (reference value: 1.83%); type: functional
# MGC-803 [26] = assay: Induction of cell cycle arrest in human MGC803 cells assessed as accumulation of cells at S phase at 10 uM incubated for 24 hrs propidium iodide-A staining-based flow cytometric analysis (reference value: 17%); type: functional
# MGC-803 [27] = assay: Induction of cell cycle arrest in human MGC803 cells assessed as accumulation of cells at G1 phase at 10 uM incubated for 24 hrs propidium iodide-A staining-based flow cytometric analysis (reference value: 52%); type: functional
# MGC-803 [28] = assay: Induction of apoptosis in human MGC803 cells assessed as early apoptotic cells at 20 uM incubated for 48 hrs by Annexin V-FITC/propidium iodide staining-based flow cytometric analysis (reference value: 1.83%); type: functional
# MGC-803 [29] = assay: Induction of cell cycle arrest in human MGC803 cells assessed as accumulation of cells at G1 phase at 2 uM incubated for 24 hrs propidium iodide-A staining-based flow cytometric analysis (reference value: 52%); type: functional
# MGC-803 [30] = assay: Induction of apoptosis in human MGC803 cells assessed as necrotic cells at 10 uM incubated for 48 hrs by Annexin V-FITC/propidium iodide staining-based flow cytometric analysis (reference value: 0.18%); type: functional
# MGC-803 [31] = assay: Induction of apoptosis in human MGC803 cells assessed as early apoptotic cells at 5 uM incubated for 48 hrs by Annexin V-FITC/propidium iodide staining-based flow cytometric analysis (reference value: 1.83%); type: functional
# MGC-803 [32] = assay: Induction of cell cycle arrest in human MGC803 cells assessed as accumulation of cells at G2/M phase at 20 uM incubated for 24 hrs propidium iodide-A staining-based flow cytometric analysis (reference value: 31%); type: functional
smiles,measurement,setting,value
CC(=O)O[C@H]1C(=O)[C@@]2(C)[C@H]([C@H](OC(=O)c3ccccc3)[C@]3(O)C[C@H](OC(=O)[C@H](O)[C@@H](NC(=O)c4ccccc4)c4ccccc4)C(C)=C1C3(C)C)[C@]1(OC(C)=O)CO[C@@H]1C[C@@H]2O [PACLITAXEL],IC50,AGS,53 nM
same,IC50,BGC-823,1.3 nM
same,IC50,MGC-803 [1],3.8 nM
same,IC50,HGC-27,8.4 nM
same,IC50,GES1,7.9 nM
Cc1c2c(c(O)c3c1[C@H](C)[C@@H](C)O3)/C(=C/c1ccccc1)C(=O)O2,Activity,MGC-803 [2],53%
same,Activity,MGC-803 [3],0.39%
same,Activity,MGC-803 [4],16%
same,Activity,AGS,Dose-dependent effect
same,IC50,AGS,8200 nM
same,Activity,MGC-803 [5],Active
same,Activity,MGC-803 [6],48%
same,Activity,MGC-803 [7],Toxic
same,Activity,MGC-803 [8],36%
same,Activity,MGC-803 [9],0.34%
same,Activity,MGC-803 [10],23%
same,Activity,MGC-803 [11],34%
same,Activity,MGC-803 [12],0.26%
same,viability at 10 µM,MGC-803 [13],97.1%
same,Activity,MGC-803 [14],33%
same,Activity,BGC-823,Dose-dependent effect
same,IC50,BGC-823,6200 nM
same,Activity,MGC-803 [1],Dose-dependent effect
same,IC50,MGC-803 [1],7000 nM
same,Activity,MGC-803 [15],0.72%
same,Activity,MGC-803 [16],16%
same,Activity,MGC-803 [17],0.54%
same,viability at 20 µM,MGC-803 [18],89.4%
same,Activity,HGC-27,Dose-dependent effect
same,IC50,HGC-27,3400 nM
same,Activity,MGC-803 [19],1.51%
same,viability at 2 µM,MGC-803 [20],98.4%
same,Activity,MGC-803 [21],1.55%
same,IC50,GES1,29000 nM
same,viability at 5 µM,MGC-803 [22],98.7%
same,inhibition,[23],Active
same,Activity,MGC-803 [24],0.24%
same,Activity,MGC-803 [25],1.95%
same,Activity,MGC-803 [26],18%
same,Activity,MGC-803 [27],49%
same,Activity,MGC-803 [28],7.57%
same,Activity,MGC-803 [29],50%
same,Activity,MGC-803 [30],0.59%
same,Activity,MGC-803 [31],0.78%
same,Activity,MGC-803 [32],24%
